For one assay, the target named is T1, recombinant human NK3 receptor (Homo sapiens, UniProt P29371).
T1 construct: expressed in transfected cells; host or cells: HEK293 cells (transient expression), membranes
T1 sequence (P29371 1-465): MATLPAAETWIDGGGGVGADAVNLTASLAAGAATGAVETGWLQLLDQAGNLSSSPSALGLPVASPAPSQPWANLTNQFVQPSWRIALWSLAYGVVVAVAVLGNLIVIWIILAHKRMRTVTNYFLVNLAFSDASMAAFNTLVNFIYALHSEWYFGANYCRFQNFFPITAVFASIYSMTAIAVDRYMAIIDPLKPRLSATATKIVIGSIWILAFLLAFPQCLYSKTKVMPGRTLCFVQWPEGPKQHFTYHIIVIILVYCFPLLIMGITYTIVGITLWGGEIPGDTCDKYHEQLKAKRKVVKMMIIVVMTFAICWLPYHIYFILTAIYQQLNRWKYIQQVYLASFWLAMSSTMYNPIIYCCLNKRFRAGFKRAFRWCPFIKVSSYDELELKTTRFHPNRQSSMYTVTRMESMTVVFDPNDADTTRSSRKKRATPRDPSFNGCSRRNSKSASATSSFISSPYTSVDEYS
Put plainly: [3H]SR142801 competition binding assay. The conditions noted are these: [3H]SR142801, membranes from HEK293 cells transiently expressing recombinant human NK3 receptor; read-out: hNK3 Ki. In short, it runs like this: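 Membranes from HEK293 cells transiently expressing human NK3 were incubated 75 min at RT with [3H]SR142801 at its KD and inhibitor (0.0003-10 μM) in Tris-HCl pH 7.4/MnCl2/phosphoramidon/BSA. Nonspecific binding used 10 μM SB222200. Ki from Hill-fitted IC50 via Cheng-Prusoff, duplicate determinations.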
Take `CN(Cc1ccc(C(F)(F)F)c(F)c1)C(=O)C(C)(CCN1CCCN(S(C)(=O)=O)CC1)c1ccc(Cl)c(Cl)c1` (centres unmarked) [Example 112, 2-(3,4-Dichloro-phenyl)-N-(3-fluoro-4-trifluoromethyl-benzyl)-4-(4-methanesulfonyl-[1,4]diazepan-1-yl)-2,N-dimethyl-butyramide]: the Ki (usually a measure of affinity in units of concentration, obtained from inhibition or displacement) is 0.0162 µM.
The same measure, in the same setting: to `CN(Cc1ccc(Cl)c(Cl)c1)C(=O)C(C)(CCN1CCCN(S(C)(=O)=O)CC1)c1ccc(Cl)c(Cl)c1` (centres unmarked) [Example 113, N-(3,4-Dichloro-benzyl)-2-(3,4-dichloro-phenyl)-4-(4-methanesulfonyl-[1,4]diazepan-1-yl)-2,N-dimethyl-butyramide] belongs 0.0101 µM.
On the same count and under the same terms, to `CC(CCN1CCCN(S(C)(=O)=O)CC1)(C(=O)NCc1ccc(Cl)c(Cl)c1)c1ccc(Cl)c(Cl)c1` (centres unmarked) [Example 114, N-(3,4-Dichloro-benzyl)-2-(3,4-dichloro-phenyl)-4-(4-methanesulfonyl-[1,4]diazepan-1-yl)-2-methyl-butyramide] belongs 0.0399 µM; to `CC(CCN1CCCN(S(C)(=O)=O)CC1)(C(=O)NCc1cccc(OC(F)F)c1)c1ccc(Cl)c(Cl)c1` (centres unmarked) [Example 115, 2-(3,4-Dichloro-phenyl)-N-(3-difluoromethoxy-benzyl)-4-(4-methanesulfonyl-[1,4]diazepan-1-yl)-2-methyl-butyramide], 0.183 µM.
As for `CC(CCN1CCCN(S(C)(=O)=O)CC1)(C(=O)NCc1cc(F)ccc1C(F)(F)F)c1ccc(Cl)c(Cl)c1` (centres unmarked) [Example 116, 2-(3,4-Dichloro-phenyl)-N-(5-fluoro-2-trifluoromethyl-benzyl)-4-(4-methanesulfonyl-[1,4]diazepan-1-yl)-2-methyl-butyramide], the Ki stood at 0.575 µM.
Same read-out and setting: to `CC(CCN1CCCN(S(C)(=O)=O)CC1)(C(=O)NCc1ccc(C(F)(F)F)cc1)c1ccc(Cl)c(Cl)c1` (centres unmarked) [Example 117, 2-(3,4-Dichloro-phenyl)-4-(4-methanesulfonyl-[1,4]diazepan-1-yl)-2-methyl-N-(4-trifluoromethyl-benzyl)-butyramide] belongs 0.0496 µM; to `CC(CCN1CCCN(S(C)(=O)=O)CC1)(C(=O)NCc1cc(C(F)(F)F)ccc1F)c1ccc(Cl)c(Cl)c1` (centres unmarked) [Example 118, 2-(3,4-Dichloro-phenyl)-N-(2-fluoro-5-trifluoromethyl-benzyl)-4-(4-methanesulfonyl-[1,4]diazepan-1-yl)-2-methyl-butyramide], 0.136 µM.
For `CC(NC(=O)C(C)(CCN1CCCN(S(C)(=O)=O)CC1)c1ccc(Cl)c(Cl)c1)c1ccc(Cl)cc1` (centres unmarked) [Example 119, N-[1-(4-Chloro-phenyl)-ethyl]-2-(3,4-dichloro-phenyl)-4-(4-methanesulfonyl-[1,4]diazepan-1-yl)-2-methyl-butyramide], the Ki came out at 0.121 µM.
Regarding `COc1cccc(CN(C)C(=O)C(C)(CCN2CCCN(S(C)(=O)=O)CC2)c2ccc(Cl)c(Cl)c2)c1` (centres unmarked) [Example 120, 2-(3,4-Dichloro-phenyl)-4-(4-methanesulfonyl-[1,4]diazepan-1-yl)-N-(3-methoxy-benzyl)-2,N-dimethyl-butyramide], the inhibitory constant (Ki) is 0.108 µM.
The same measure, in the same setting: to `CN(Cc1ccccc1Cl)C(=O)C(C)(CCN1CCCN(S(C)(=O)=O)CC1)c1ccc(Cl)c(Cl)c1` (centres unmarked) [Example 121, N-(2-Chloro-benzyl)-2-(3,4-dichloro-phenyl)-4-(4-methanesulfonyl-[1,4]diazepan-1-yl)-2,N-dimethyl-butyramide] belongs 0.0312 µM; to `CC(NC(=O)C(C)(CCN1CCCN(S(C)(=O)=O)CC1)c1ccc(Cl)c(Cl)c1)c1ccc(Cl)c(Cl)c1` (centres unmarked) [Example 122, 2-(3,4-Dichloro-phenyl)-N-[1-(3,4-dichloro-phenyl)-ethyl]-4-(4-methanesulfonyl-[1,4]diazepan-1-yl)-2-methyl-butyramide], 0.0434 µM; to `CN(Cc1ccc(-c2ccncc2)cc1)C(=O)C(C)(CCN1CCCN(S(C)(=O)=O)CC1)c1ccc(Cl)c(Cl)c1` (centres unmarked) [Example 123, 2-(3,4-Dichloro-phenyl)-4-(4-methanesulfonyl-[1,4]diazepan-1-yl)-2,N-dimethyl-N-(4-pyridin-4-yl-benzyl)-butyramide], 0.0934 µM.
The same measure, in the same setting: under `CC(CCN1CCCN(S(C)(=O)=O)CC1)(C(=O)NCc1ccc(C#N)cc1)c1ccc(Cl)c(Cl)c1` (centres unmarked) [Example 124, N-(4-Cyano-benzyl)-2-(3,4-dichloro-phenyl)-4-(4-methanesulfonyl-[1,4]diazepan-1-yl)-2-methyl-butyramide] stands 0.107 µM; under `CN(Cc1ccc(C(F)(F)F)nc1)C(=O)C(C)(CCN1CCCN(S(C)(=O)=O)CC1)c1ccc(Cl)c(Cl)c1` (centres unmarked) [Example 125, 2-(3,4-Dichloro-phenyl)-4-(4-methanesulfonyl-[1,4]diazepan-1-yl)-2,N-dimethyl-N-(6-trifluoromethyl-pyridin-3-ylmethyl)-butyramide], 0.275 µM.
The same measure, in the same setting: under `CC(CCN1CCCN(S(C)(=O)=O)CC1)(C(=O)NCc1ccc(C(F)(F)F)nc1)c1ccc(Cl)c(Cl)c1` (centres unmarked) [Example 126, 2-(3,4-Dichloro-phenyl)-4-(4-methanesulfonyl-[1,4]diazepan-1-yl)-2-methyl-N-(6-trifluoromethyl-pyridin-3-ylmethyl)-butyramide] stands 0.949 µM; under `CN(Cc1cccc(C(F)(F)F)c1)C(=O)C(C)(CCN1CCN(S(C)(=O)=O)CC1)c1ccc(Cl)c(Cl)c1` (centres unmarked) [Example 127, 2-(3,4-Dichloro-phenyl)-4-(4-methanesulfonyl-piperazin-1-yl)-2,N-dimethyl-N-(3-trifluoromethyl-benzyl)-butyramide], 0.0784 µM; under `CC(CCN1CCN(S(C)(=O)=O)CC1)(C(=O)N[C@@H](CO)c1ccc(Cl)cc1)c1ccc(Cl)c(Cl)c1` (stereo partly drawn) [Example 130, N-[(R)-1-(4-Chloro-phenyl)-2-hydroxy-ethyl]-2-(3,4-dichloro-phenyl)-4-(4-methanesulfonyl-piperazin-1-yl)-2-methyl-butyramide], 0.0399 µM.
Consider `CC(CCN1CCN(S(C)(=O)=O)CC1)(C(=O)N[C@H](CO)c1ccc(Cl)cc1)c1ccc(Cl)c(Cl)c1` (stereo partly drawn) [Example 131, N-[(S)-1-(4-Chloro-phenyl)-2-hydroxy-ethyl]-2-(3,4-dichloro-phenyl)-4-(4-methanesulfonyl-piperazin-1-yl)-2-methyl-butyramide], for which the Ki is 0.186 µM.
For the compound `CC(CCN1CCN(S(C)(=O)=O)CC1)(C(=O)N[C@@H](CO)c1ccc(F)cc1)c1ccc(Cl)c(Cl)c1` (stereo partly drawn) [Example 132, 2-(3,4-Dichloro-phenyl)-N-[(R)-1-(4-fluoro-phenyl)-2-hydroxy-ethyl]-4-(4-methanesulfonyl-piperazin-1-yl)-2-methyl-butyramide], the Ki turned out to be 0.146 µM.
On to `CC(CCN1CCN(S(C)(=O)=O)CC1)(C(=O)N[C@H](CO)c1ccc(F)cc1)c1ccc(Cl)c(Cl)c1` (stereo partly drawn) [Example 133, 2-(3,4-Dichloro-phenyl)-N-[(S)-1-(4-fluoro-phenyl)-2-hydroxy-ethyl]-4-(4-methanesulfonyl-piperazin-1-yl)-2-methyl-butyramide], for which the Ki stood at 0.397 µM.
`CC(NC(=O)C(C)(CCN1CCN(S(C)(=O)=O)CC1)c1ccc(Cl)c(Cl)c1)c1ccc(F)cc1` (centres unmarked) [Example 134, 2-(3,4-Dichloro-phenyl)-N-[1-(4-fluoro-phenyl)-ethyl]-4-(4-methanesulfonyl-piperazin-1-yl)-2-methyl-butyramide]: the Ki worked out at 0.229 µM.
Turning to `CC(CCN1CCN(S(C)(=O)=O)CC1)(C(=O)NC(c1ccc(F)cc1)C(F)(F)F)c1ccc(Cl)c(Cl)c1` (centres unmarked) [Example 135, 2-(3,4-Dichloro-phenyl)-4-(4-methanesulfonyl-piperazin-1-yl)-2-methyl-N-[2,2,2-trifluoro-1-(4-fluoro-phenyl)-ethyl]-butyramide], the inhibition constant (Ki) came out at 0.196 µM.
On the same count and under the same terms, under `CC(CCN1CCN2C(CCS2(=O)=O)C1)(C(=O)N[C@@H](CO)c1ccc(Cl)cc1)c1ccc(Cl)c(Cl)c1` (stereo partly drawn) [Example 136, N-[(R)-1-(4-Chloro-phenyl)-2-hydroxy-ethyl]-2-(3,4-dichloro-phenyl)-4-(1,1-dioxo-hexahydro-1λ^6-thia-5,7a-diaza-inden-5-yl)-2-methyl-butyramide] stands 0.0154 µM.
Turning to `CC(CCN1CCN2C(CCS2(=O)=O)C1)(C(=O)N[C@@H](CO)c1ccc(F)cc1)c1ccc(Cl)c(Cl)c1` (stereo partly drawn) [Example 137, 2-(3,4-Dichloro-phenyl)-4-(1,1-dioxo-hexahydro-1λ^6-thia-5,7a-diaza-inden-5-yl)-N-[(R)-1-(4-fluoro-phenyl)-2-hydroxy-ethyl]-2-methyl-butyramide], the Ki amounted to 0.0305 µM.

Tested on in another assay: not given
Test: not given
The conditions noted are these: phase II trial; cited from earlier work.
Consider `CC(=O)N(C)C1(c2ccccc2)CCN(CCC[C@]2(c3ccc(Cl)c(Cl)c3)CCCN(C(=O)c3ccccc3)C2)CC1` [SR 142,801, Osanetant], for which the “activity in the treatment of negative symptoms” value was “inactive” and the “activity on positive symptoms of schizophrenia” value is given as “active”.

(Values after patent publication US7592345B2, “Piperazine and [1,4]diazepan derivatives as NK antagonists” (Hoffmann-La Roche Inc., priority 2007, dated 2009).)
